Reference: patent US20210322375A1, “COMBINATION DRUG FORMULATIONS FOR TREATING PATIENTS WITH CARDIOVASCULAR DISEASE AND ASSOCIATED CONDITIONS” (Esperion Therapeutics, Inc., priority 2018, published 2021)
“Also recorded” adds a separate entry of the source. Marks after values point to notes of the source that are not given here.

Legend:
[1] = test system: hypercholesterolemic patients; assay: Phase 2b trial: treatment-emergent adverse events and laboratory safety
From the text: Study Population. Medically stable, hypercholesterolemic men and women aged 18 through 80 years with a body mass index between 18 to 45 kg/m^2 were included in the study. […] The study population included both statin-tolerant and statin-intolerant participants. Statin intolerance was defined as the inability to tolerate ≥2 statins because of muscle-related symptoms such as pain, weakness, or cramping that began or increased during statin therapy and resolved on statin discontinuation. At least 1 statin must have been administered at the lowest approved daily dose, defined as rosuvastatin 5 mg, atorvastatin 10 mg, simvastatin 10 mg, lovastatin 20 mg, pravastatin 40 mg, fluvastatin 40 mg, or pitavastatin 2 mg. Treatment with less than the lowest approved daily dose of a statin (i.e., skipping days) was considered equivalent to not tolerating 1 statin at the lowest approved daily dose.
Overall Study Design and Plan. […] Patients underwent a 5-week washout of all lipid-regulating drugs and dietary supplements and abstained from these drugs and supplements throughout the study. Patients also underwent a 5-week patient-only-blinded placebo run-in during the screening period (week −5 to week 0). This single-blind placebo run-in period was used to eliminate patients with muscle-related AEs during placebo treatment. Patients reporting new or worsening, unexplained muscle-related AEs during this run-in period were excluded from the study.
Patients were stratified (1:1) by history of statin intolerance and randomized at week 0 in a 4:4:4:1:1 ratio to once-daily treatment with capsules containing ETC-1002 120 mg, ETC-1002 180 mg, EZE, ETC-1002 120 mg plus EZE, or ETC-1002 180 mg plus EZE. […] A contract laboratory (Medpace Inc., Cincinnati, Ohio), performed all clinical laboratory tests. LDL-C was calculated using the Friedewald equation. Phlebotomy was performed after a minimum 12-hour fast (water was allowed) and only if the patient took their dose of study drug the previous day.
Safety Endpoints. The safety of ETC-1002 was assessed using treatment-emergent AEs; hematology, serum chemistry, and urinalysis laboratory values; physical examination findings; vital sign measurements; electrocardiogram (ECG) readings; weight; and ankle and waist circumference measurements. AEs were coded using the Medical Dictionary for Regulatory Activities version 16.0 and evaluated by the investigator for severity and relation to study drug. Muscle-related AEs were defined as those from the system organ class of musculoskeletal and connective tissue disorders, except for those that were not obviously muscle related. Terms included in the muscle-related AE analysis were selected from this system organ class after database lock and before unblinding.
Safety analyses were performed on the safety population, which included randomized patients who received at least 1 dose of study drug. Baseline patient characteristics were summarized for the safety population by treatment group and statin-tolerance subgroup.
Muscle-related AEs also were summarized by statin-tolerance subgroup.

[2] = test system: high cardiovascular risk patients; assay: Phase 3 clinical trial study: LDL-C and hsCRP lowering; assay type: in vivo, human; details: ETC-1002 monotherapy
[3] = test system: high cardiovascular risk patients; assay: Phase 3 clinical trial study: safety and tolerability; details: human, in vivo
From the text: In a phase 3 clinical trial study consisting of 382 high cardiovascular risk patients who are receiving maximally tolerated statin therapy, treatment of ETC-1002 in combination with Ezetimibe provided clinically and statistically significant lowering of both LDL-C and hsCRP levels by about 35% and about 34% respectively. For patients who are on maximally tolerated statins and received the combination therapy of ETC-1002 and Ezetimibe, no increases in muscle-related adverse effects and no elevations in liver function tests were observed as compared to patients receiving the placebo treatment.

[4] = test system: hypercholesterolemic patients; assay: Phase 2b randomized double-blind trial: percent change from baseline to week 12 in lipids and CRP; assay type: in vivo, human; details: for LDL-C reduction: baseline to week 12; for Apolipoprotein A-I, percent change from baseline to week 12 / Apolipoprotein B, percent change from baseline to week 12 / HDL particle number, percent change from baseline to week 12 / HDL-C, percent change from baseline to week 12 / LDL particle number, percent change from baseline to week 12 / LDL-C, percent change from baseline to week 12 / Non-HDL-C, percent change from baseline to week 12 / Total cholesterol, percent change from baseline to week 12: LS mean ± SE; for CRP, percent change from baseline to week 12 / Triglycerides, percent change from baseline to week 12 / VLDL particle number, percent change from baseline to week 12: median (interquartile range)
Description: Brief Description of Clinical Study and Results.
Study Objectives. The primary objective was to assess the LDL-C-lowering effect of ETC-1002 monotherapy (120 mg or 180 mg daily) versus EZE monotherapy in hypercholesterolemic patients with or without statin intolerance. Secondary objectives were to characterize the dose response of ETC-1002, evaluate the impact of treatment on other lipid and cardiometabolic biomarkers, compare the LDL-C-lowering effect of ETC-1002 plus EZE combination therapy with EZE monotherapy, and characterize the safety and tolerability of the treatment regimens, including muscle-related adverse events (AEs).
Overall Study Design and Plan. […] 16, 2013 to Aug.
LDL-C was calculated using the Friedewald equation.
Efficacy Endpoints. The primary endpoint was the percent change from baseline to week 12 in calculated LDL-C in patients treated with ETC-1002 monotherapy versus those treated with EZE alone. Secondary endpoints included the dose-response relationship between ETC-1002 and the percent change in LDL-C from baseline to week 12, the percent change in LDL-C from baseline to week 12 in patients treated with ETC-1002 plus EZE versus those treated with EZE alone, and the percent change from baseline to week 12 for all treatment groups in LDL particle number, apolipoprotein B, total cholesterol, non-high-density lipoprotein cholesterol (non-HDL-C), HDL-C, HDL particle number, apolipoprotein A-I, triglycerides, very-low-density lipoprotein (VLDL) particle number, and high-sensitivity C-reactive protein (CRP). Lipoprotein particle number was measured using nuclear magnetic resonance […].
Statistical Plan and Analyses. The study was designed to include 322 patients: 92 patients in each monotherapy group and 23 patients in each combination therapy group. Sample size calculations were performed using nQuery Advisor® version 7.0 (Statistical Solutions, Cork, Ireland). The sample size of 92 patients per monotherapy group was expected to provide 90% power to detect a difference of 10% in the absolute percent change from baseline to week 12 in LDL-C between either ETC-1002 treatment group and the EZE monotherapy group. This calculation was based on a 2-sided t test at the 5% level of significance and assumed a common standard deviation of 15% in the statin-tolerant patients and 22% in the statin-intolerant patients with a dropout rate of 15%.
An analysis of covariance was used to compare each ETC-1002 treatment group with EZE monotherapy for each of the efficacy endpoints. The primary model included the effects of treatment and statin intolerance and the baseline value as a covariate. Baseline was defined as the mean of values from weeks −1 and 0 for LDL-C, non-HDL-C, total cholesterol, HDL-C, and triglycerides. For all other lipid and biomarker measures, baseline was defined as the last value before the first dose of study drug. Missing values at week 12 were imputed using the last-observation-carried-forward procedure. When LDL-C could not be calculated (i.e., triglycerides >400 mg/dL), beta-quantification measurements were used to determine LDL-C values. Least-squares (LS) means and standard errors were obtained for each treatment group; differences in LS means and p-values were obtained for the treatment comparisons. Graphical methods (e.g., normal probability plot and histogram of residuals, plot of residuals vs. predicted values) or analytical methods (e.g., Shapiro-Wilk test), or both, were used to assess the model assumptions. Because of departures from normality observed in the parameters of triglycerides, CRP, and VLDL particle number, nonparametric analyses were performed for these measures, with p-values obtained from the Wilcoxon rank-sum test and median values presented.
Percent changes from baseline in LDL-C also were summarized by statin-tolerance subgroup. […]

[5] = ETC-1002 120 mg daily, safety population n = 99
[6] = ETC-1002 180 mg daily, safety population n = 100
[7] = statin-intolerant patients, ETC-1002 120 mg, n = 51
[8] = statin-intolerant patients, ETC-1002 180 mg, n = 51
[9] = statin-tolerant patients, ETC-1002 120 mg, n = 48
[10] = statin-tolerant patients, ETC-1002 180 mg, n = 49
[11] = ETC-1002 120 mg daily, mITT n = 97
[12] = ETC-1002 180 mg daily, mITT n = 99

## CC(C)(CCCCCC(O)CCCCCC(C)(C)C(=O)O)C(=O)O [ETC-1002, 8-hydroxy-2,2,14,14 tetramethylpentadecanedioic acid]
[1]; ETC-1002 120 mg
  ALT or AST, or both, increased >3 times the upper limit of normal at any measurement: 1 patient
  Myalgia, patients, entire study population: 3%
  Serious AE reported (event): hemothorax; also recorded: sudden death
[1]; [5]
  ALT increased, patients: 0 n (%)
  AST increased, patients: 0 n (%)
  Any AE(s), patients: 50 (51%) n (%)
  Arthralgia, patients: 4 (4%) n (%)
  Back pain, patients: 1 (1%) n (%)
  Blood CK increased, patients: 1 (1%) n (%)
  Constipation, patients: 3 (3%) n (%)
  Discontinuation due to AE(s), patients: 3 (3%) n (%)
  Headache, patients: 3 (3%) n (%)
  Myalgia, patients: 3 (3%) n (%)
  Nasopharyngitis, patients: 3 (3%) n (%)
  Serious AE(s), patients: 2 (2%) n (%)
  Study drug-related AE(s), patients: 13(13%) n (%)
  Upper respiratory tract infection, patients: 6 (6%) n (%)
  Urinary tract infection, patients: 0 n (%)
[1]; ETC-1002 180 mg
  ALT or AST, or both, increased >3 times the upper limit of normal at any measurement: 2 patients
  Myalgia, patients, entire study population: 1%
  Serious AE reported (event): pancreatitis relapse
[1]; [6]
  ALT increased, patients: 0 n (%)
  AST increased, patients: 0 n (%)
  Any AE(s), patients: 55 (55%) n (%)
  Arthralgia, patients: 1 (1%) n (%)
  Back pain, patients: 1 (1%) n (%)
  Blood CK increased, patients: 4 (4%) n (%)
  Constipation, patients: 1 (1%) n (%)
  Discontinuation due to AE(s), patients: 6 (6%) n (%)
  Headache, patients: 2 (2%) n (%)
  Myalgia, patients: 1 (1%) n (%)
  Nasopharyngitis, patients: 5 (5%) n (%)
  Serious AE(s), patients: 1 (1%) n (%)
  Study drug-related AE(s), patients: 18 (18%) n (%)
  Upper respiratory tract infection, patients: 6 (6%) n (%)
  Urinary tract infection, patients: 4 (4%) n (%)
[1]; [7]
  Any muscle-related AE, patients: 7 (14%) n (%)
  Muscle spasms, patients: 3 (6%) n (%)
  Muscle-related AE leading to discontinuation, patients: 1 (2%) n (%)
  Muscular weakness, patients: 2 (4%) n (%)
  Musculoskeletal chest pain, patients: 0 n (%)
  Musculoskeletal stiffness, patients: 0 n (%)
  Myalgia, patients: 2 (4%) n (%)
  Pain in extremity, patients: 1 (2%) n (%)
  Sensation of heaviness, patients: 0 n (%)
[1]; [8]
  Any muscle-related AE, patients: 6 (12%) n (%)
  Muscle spasms, patients: 2 (4%) n (%)
  Muscle-related AE leading to discontinuation, patients: 2 (4%) n (%)
  Muscular weakness, patients: 1 (2%) n (%)
  Musculoskeletal chest pain, patients: 1 (2%) n (%)
  Musculoskeletal stiffness, patients: 0 n (%)
  Myalgia, patients: 1 (2%) n (%)
  Pain in extremity, patients: 1 (2%) n (%)
  Sensation of heaviness, patients: 0 n (%)
[1]; [9]
  Any muscle-related AE, patients: 1 (2%) n (%)
  Muscle spasms, patients: 0 n (%)
  Muscle-related AE leading to discontinuation, patients: 0 n (%)
  Musculoskeletal pain, patients: 0 n (%)
  Myalgia, patients: 1 (2%) n (%)
[1]; [10]
  Any muscle-related AE, patients: 0 n (%)
  Muscle spasms, patients: 0 n (%)
  Muscle-related AE leading to discontinuation, patients: 0 n (%)
  Musculoskeletal pain, patients: 0 n (%)
  Myalgia, patients: 0 n (%)
[2]; patients not receiving background statin therapy
  LDL-C lowering: ≥ 30%
[2]; patients receiving background statin therapy
  LDL-C lowering: ≥ 20%
[2]; patients receiving maximally tolerated statin therapy
  hsCRP lowering: 22-40%
[3]
  Increases in muscle-related adverse effects or serious adverse effects: without any increases
  Tolerability: well tolerated and safe
[4]; ETC-1002 120 mg
  CRP decrease from baseline to week 12 endpoint, median: 30%
[4]; ETC-1002 120 mg alone
  LDL-C reduction: 27%
[4]; [11]
  Apolipoprotein A-I, percent change from baseline to week 12: −0.2 ± 1.1%
  Apolipoprotein B, percent change from baseline to week 12: −19.3 ± 1.3 %
  HDL particle number, percent change from baseline to week 12: 5.0 ± 1.3%
  HDL-C, percent change from baseline to week 12: −5.8 ± 1.4 %
  LDL particle number, percent change from baseline to week 12: −21.8 ± 1.7 %
  LDL-C, percent change from baseline to week 12: −27.5 ± 1.3 %
  Non-HDL-C, percent change from baseline to week 12: −23.2 ± 1.2 %
  Total cholesterol, percent change from baseline to week 12: −19.3 ± 0.9 %
  CRP, percent change from baseline to week 12: −30.1 (55.4)† %
  Triglycerides, percent change from baseline to week 12: 0.0 (41.6) %
  VLDL particle number, percent change from baseline to week 12: −2.7 (68.5) %
[4]; ETC-1002 180 mg
  CRP decrease from baseline to week 12 endpoint, median: 40%
[4]; ETC-1002 180 mg alone
  LDL-C reduction: 30%
[4]; [12]
  Apolipoprotein A-I, percent change from baseline to week 12: 0.1 ± 1.2%
  Apolipoprotein B, percent change from baseline to week 12: −21.3 ± 1.3 %
  HDL particle number, percent change from baseline to week 12: 6.2 ± 1.4%
  HDL-C, percent change from baseline to week 12: −4.8 ± 1.4 %
  LDL particle number, percent change from baseline to week 12: −24.6 ± 1.8 %
  LDL-C, percent change from baseline to week 12: −30.1 ± 1.3 %
  Non-HDL-C, percent change from baseline to week 12: −25.3 ± 1.1 %
  Total cholesterol, percent change from baseline to week 12: −20.7 ± 0.9 %
  CRP, percent change from baseline to week 12: −40.2 (53.3)† %
  Triglycerides, percent change from baseline to week 12: −2.7 (46.2) %
  VLDL particle number, percent change from baseline to week 12: 15.3 (80.5) %
[4]; ETC-1002 monotherapy 120 mg or 180 mg
  LDL-C reduction, ETC-1002 alone (maximum): up to 30%
